“And” between values parts separate entries of the source, which are not always exact repeats. Identical values can stand only once. “Also recorded” adds a separate entry of the source.
Tested on: C. elegans
Assay: C. elegans motor phenotype scoring on solid media (Punc/jerky-unc, coiled, paralyzed), wild-type young adults
Type: in vivo, Caenorhabditis elegans
Conditions: for any phene, mean % fraction of young adults exhibiting any phenotype (coiled, jerky-Unc or paralyzed) / atypical locomotion (number of animals) / coiled (number of animals) / no phene (number of animals) / paralyzed (number of animals): one hour; for any phene, mean % fraction of young adults exhibiting any phenotype (coiled, jerky-Unc or paralyzed): mean of three biological replicates; for atypical locomotion (number of animals) / coiled (number of animals) / no phene (number of animals) / paralyzed (number of animals): young adults, 20 animals per trial, single replicate counts; for Fraction Coiled / Fraction Paralyzed / Fraction Punc: single experiment

In the case of `O=[N+]([O-])c1ccc(N2CCN(CC3CC4C=CC3C4)CC2)cc1` (stereo not shown) [Nemacol-3], the “any phene, mean % fraction of young adults exhibiting any phenotype (coiled, jerky-Unc or paralyzed)” value (3.75uM) is reported as 19.1667%, the “atypical locomotion (number of animals)” value (3.75uM) is reported as 0 and 13 and 10 and the “coiled (number of animals)” value (3.75uM) is reported as 0. For the same compound, the “no phene (number of animals)” value (3.75uM) was 20 and 7 and 10, the “paralyzed (number of animals)” value (3.75uM) was 0 and the “C1 (number of animals scored)” value (15 μM, 30 min, adults) was 0. The “C2 (number of animals scored)” value (15 μM, 30 min, adults) was 0, the “Fraction Coiled, AVERAGES” value (15 μM, 30 min, adults) was 0.0 and the “Fraction Paralyzed, AVERAGES” value (15 μM, 30 min, adults) was 0.0. The “Fraction Punc, AVERAGES” value (15 μM, 30 min, adults) was 0.111, the “NP (number of animals scored)” value (15 μM, 30 min, adults) was 17 and 14 and the “P (number of animals scored)” value (15 μM, 30 min, adults) was 0. For the same compound, the “Fraction Coiled” value (15 μM, 30 min, adults) was 0.0, the “Fraction Paralyzed” value (15 μM, 30 min, adults) was 0.0 and the “C1 (number of animals scored)” value (15 μM, 60 min, adults) was 0. For the same compound, the “C2 (number of animals scored)” value (15 μM, 60 min, adults) was 0, the “Fraction Coiled, AVERAGES” value (15 μM, 60 min, adults) was 0.0 and the “Fraction Paralyzed, AVERAGES” value (15 μM, 60 min, adults) was 0.0. The “Fraction Punc, AVERAGES” value (15 μM, 60 min, adults) was 0.4, the “P (number of animals scored)” value (15 μM, 60 min, adults) was 0 and the “Fraction Coiled” value (15 μM, 60 min, adults) was 0.0. The “Fraction Paralyzed” value (15 μM, 60 min, adults) was 0.0, the “C1 (number of animals scored)” value (15 μM, 90 min, adults) was 0 and the “C2 (number of animals scored)” value (15 μM, 90 min, adults) was 0. For the same compound, the “Fraction Coiled, AVERAGES” value (15 μM, 90 min, adults) was 0.0, the “Fraction Paralyzed, AVERAGES” value (15 μM, 90 min, adults) was 0.0 and the “Fraction Punc, AVERAGES” value (15 μM, 90 min, adults) was 0.167. The “NP (number of animals scored)” value (15 μM, 90 min, adults) was 16 and 14 and 15, the “P (number of animals scored)” value (15 μM, 90 min, adults) was 0 and the “Punc (number of animals scored)” value (15 μM, 90 min, adults) was 2 and 4 and 3. For the same compound, the “Fraction Coiled” value (15 μM, 90 min, adults) was 0.0, the “Fraction Paralyzed” value (15 μM, 90 min, adults) was 0.0 and the “Fraction Punc” value (15 μM, 90 min, adults) was 0.111 and 0.222 and 0.167. For the same compound, the “C1 (number of animals scored)” value (15 μM, 120 min, adults) was 0, the “C2 (number of animals scored)” value (15 μM, 120 min, adults) was 0 and the “Fraction Coiled, AVERAGES” value (15 μM, 120 min, adults) was 0.0. The “Fraction Paralyzed, AVERAGES” value (15 μM, 120 min, adults) was 0.0, the “Fraction Punc, AVERAGES” value (15 μM, 120 min, adults) was 0.0185 and the “NP (number of animals scored)” value (15 μM, 120 min, adults) was 18 and 17. The “P (number of animals scored)” value (15 μM, 120 min, adults) was 0, the “Fraction Coiled” value (15 μM, 120 min, adults) was 0.0 and the “Fraction Paralyzed” value (15 μM, 120 min, adults) was 0.0. For the same compound, the “C1 (number of animals scored)” value (15 μM, 240 min, adults) was 0, the “C2 (number of animals scored)” value (15 μM, 240 min, adults) was 0 and the “Fraction Coiled, AVERAGES” value (15 μM, 240 min, adults) was 0.0. The “Fraction Paralyzed, AVERAGES” value (15 μM, 240 min, adults) was 0.0, the “Fraction Punc, AVERAGES” value (15 μM, 240 min, adults) was 0.0 and the “NP (number of animals scored)” value (15 μM, 240 min, adults) was 18. The “P (number of animals scored)” value (15 μM, 240 min, adults) was 0, the “Punc (number of animals scored)” value (15 μM, 240 min, adults) was 0 and the “Fraction Coiled” value (15 μM, 240 min, adults) was 0.0. For the same compound, the “Fraction Paralyzed” value (15 μM, 240 min, adults) was 0.0, the “Fraction Punc” value (15 μM, 240 min, adults) was 0.0 and the “C1 (number of animals scored)” value (15 μM, 360 min, adults) was 0. The “C2 (number of animals scored)” value (15 μM, 360 min, adults) was 0, the “Fraction Coiled, AVERAGES” value (15 μM, 360 min, adults) was 0.0 and the “Fraction Paralyzed, AVERAGES” value (15 μM, 360 min, adults) was 0.0. The “Fraction Punc, AVERAGES” value (15 μM, 360 min, adults) was 0.0, the “NP (number of animals scored)” value (15 μM, 360 min, adults) was 18 and the “P (number of animals scored)” value (15 μM, 360 min, adults) was 0. For the same compound, the “Punc (number of animals scored)” value (15 μM, 360 min, adults) was 0, the “Fraction Coiled” value (15 μM, 360 min, adults) was 0.0 and the “Fraction Paralyzed” value (15 μM, 360 min, adults) was 0.0. For the same compound, the “Fraction Punc” value (15 μM, 360 min, adults) was 0.0, the “Next Day: Animals alive (moving fine)” value (15 μM, next day, adults) was “alive, recovered; also recorded: alive recovered” and the “any phene, mean % fraction of young adults exhibiting any phenotype (coiled, jerky-Unc or paralyzed)” value (15uM) was 65.4545%. The “atypical locomotion (number of animals)” value (15uM) was 12 and 14 and 4 and 3 and 7, the “coiled (number of animals)” value (15uM) was 2 and 1 and 5 and the “no phene (number of animals)” value (15uM) was 6 and 5 and 15 and 16 and 0. For the same compound, the “paralyzed (number of animals)” value (15uM) was 2 and 0 and 8 and 11, the “C1 (number of animals scored)” value (30 μM, 30 min, adults) was 0 and the “C2 (number of animals scored)” value (30 μM, 30 min, adults) was 0. The “Fraction Coiled, AVERAGES” value (30 μM, 30 min, adults) was 0.0, the “Fraction Paralyzed, AVERAGES” value (30 μM, 30 min, adults) was 0.0 and the “Fraction Punc, AVERAGES” value (30 μM, 30 min, adults) was 0.333. For the same compound, the “NP (number of animals scored)” value (30 μM, 30 min, adults) was 14 and 11, the “P (number of animals scored)” value (30 μM, 30 min, adults) was 0 and the “Punc (number of animals scored)” value (30 μM, 30 min, adults) was 4 and 7. For the same compound, the “Fraction Coiled” value (30 μM, 30 min, adults) was 0.0, the “Fraction Paralyzed” value (30 μM, 30 min, adults) was 0.0 and the “Fraction Punc” value (30 μM, 30 min, adults) was 0.222 and 0.4. The “C1 (number of animals scored)” value (30 μM, 60 min, adults) was 0, the “C2 (number of animals scored)” value (30 μM, 60 min, adults) was 0 and the “Fraction Coiled, AVERAGES” value (30 μM, 60 min, adults) was 0.0. For the same compound, the “Fraction Paralyzed, AVERAGES” value (30 μM, 60 min, adults) was 0.0, the “Fraction Punc, AVERAGES” value (30 μM, 60 min, adults) was 0.6 and the “P (number of animals scored)” value (30 μM, 60 min, adults) was 0. For the same compound, the “Punc (number of animals scored)” value (30 μM, 60 min, adults) was 8 and 15, the “Fraction Coiled” value (30 μM, 60 min, adults) was 0.0 and the “Fraction Paralyzed” value (30 μM, 60 min, adults) was 0.0. For the same compound, the “Fraction Punc” value (30 μM, 60 min, adults) was 0.444 and 0.8, the “C1 (number of animals scored)” value (30 μM, 90 min, adults) was 0 and the “C2 (number of animals scored)” value (30 μM, 90 min, adults) was 0. For the same compound, the “Fraction Coiled, AVERAGES” value (30 μM, 90 min, adults) was 0.0, the “Fraction Paralyzed, AVERAGES” value (30 μM, 90 min, adults) was 0.0 and the “Fraction Punc, AVERAGES” value (30 μM, 90 min, adults) was 0.3. For the same compound, the “NP (number of animals scored)” value (30 μM, 90 min, adults) was 13 and 9 and 16, the “P (number of animals scored)” value (30 μM, 90 min, adults) was 0 and the “Fraction Coiled” value (30 μM, 90 min, adults) was 0.0. The “Fraction Paralyzed” value (30 μM, 90 min, adults) was 0.0.
